According to article PMC10244465, “Native American ataxia medicines rescue ataxia-linked mutant potassium channel activity via binding to the voltage sensing domain” (Nature Communications, 2023):

Experiments:
[1] = molecular target: T1, wild-type human Kv1.2 (Homo sapiens, UniProt P16389); test: Two-electrode voltage clamp of oocytes expressing wild-type Kv1.2; format: cell-based
T1 construct: expressed in transfected cells; host or cells: Xenopus laevis oocytes injected with cRNA (pTLNx vector)
Method: We therefore first tested for activity of extracts (diluted 1:50 in bath solution to equal 5 mg plant solid starting material per ml) of each of the three plants on wild-type human Kv1.1 and closely related Kv1.2 expressed in Xenopus laevis oocytes, using manual two-electrode voltage clamp (TEVC). Strikingly, all three extracts altered Kv1 channel activity. […] Pacific ninebark (roots or leaves) had similar effects on Kv1.1 but negligible effects on Kv1.2.
We purchased live Urtica dioica (Common Nettle) from Crimson Sage Nursery (Orleans, CA, USA), cultivated it in Irvine CA, collected the aerial portions (primarily leaves) and then froze them until the day of extraction. We purchased Physocarpus capitatus (Pacific ninebark) live whole plant from Ozark Wildflower Company (Jasper, AR, USA) and separated the roots and aerial parts before extraction of each. We homogenized plant samples using a bead mill with porcelain beads in batches in 50 ml tubes (Omni International, Kennesaw, GA, United States). We purchased certified organic tree bark powders from Mountain Rose Herbs (Eugene, OR, USA) and dry raw Sophora japonica (fine pellets) from Teriya (People’s Republic of China). We purchased bladderwrack kelp extract capsules from Terra Vita (Brampton, Ontario, Canada) and discarded the outer capsule before extraction. We resuspended all plant powders and homogenates in 80% methanol/20% water (100 ml per 5 g solid) and then incubated for 48 h at room temperature, occasionally inverting the bottles to resuspend the extracts. We next filtered the extracts through Whatman filter paper #1 (Whatman, Maidstone, UK), and then removed the methanol using evaporation in a fume hood for 24–48 h at room temperature. We next centrifuged extracts for 10 min at 15 °C, 4000 RCF to remove the remaining particulate matter, followed by storage at −20 °C. On the day of electrophysiological recording, we thawed the extracts and diluted them 1:50 in bath solution (see below), to equal 5 mg plant solid starting material per ml, immediately before use.
Wild-type and mutant Kv1 cDNAs were generated (Genscript, Piscataway, NJ) in the pTLNx expression vector. […]
(§1) We performed TEVC at room temperature using an OC-725C amplifier (Warner Instruments, Hamden, CT) and pClamp10 software (Molecular Devices, Sunnyvale, CA) 2 days after cRNA injection as described in the section above. […] We recorded currents in response to voltage pulses between −80 mV and +40 mV at 10 or 20 mV intervals from a holding potential of −80 mV, to yield current-voltage relationships and examine activation kinetics. To calculate the voltage dependence of activation (V0.5), tail currents were recorded at a voltage pulse of −50 mV immediately following prepulse voltages between −80 mV and +40 mV. […]

[2] = molecular target: T2, Kv1.1/Kv1.1-V408A channels (Homo sapiens, UniProt Q09470, V408A); test: TEVC of oocytes co-injected with 50/50 wild-type/V408A Kv1.1 cRNA; format: cell-based; conditions: for effect on channel activity: compound 1 µM
T2 construct: expressed in transfected cells; host or cells: Xenopus laevis oocytes co-injected with 50/50 wild-type/mutant cRNA
Method: We next tested effects on channels generated by co-injection of 50/50 wild-type/mutant Kv1.1 cRNA. Strikingly, gallic acid (1 µM) was able to hyperpolarize (by −15.5 ± 0.5 mV; n = 4; P < 0.0001) the V0.5 act of Kv1.1/Kv1.1-E283K channels, restoring voltage dependence typical of wild-type Kv1.1 (Fig. 7a–c), also inducing a −14 ± 0.7 mV hyperpolarization (n = 4; P = 0.0005) in EM of oocytes expressing Kv1.1/Kv1.1-E283K (Fig. 7d). […] Because of this hint at activity improvement in L155P channels we also applied higher concentrations (10 and 100 µM) of gallic acid, which produced a more robust (−12.5 ± 0.6 mV and −14.1 ± 0.6 mV, respectively) hyperpolarization of Kv1.1/Kv1.1-L155P V0.5 act (Fig. 8b, c) and hyperpolarized EM by −14.0 ± 0.6 mV and −15.2 ± 0.7 mV, respectively (Fig. 8d).
Wild-type and mutant Kv1 cDNAs were generated (Genscript, Piscataway, NJ) in the pTLNx expression vector. As previously described, we generated cRNA transcripts encoding human Kv1.1 (wild-type and mutant) and Kv1.2, by in vitro transcription using the mMessage mMachine kit (Thermo Fisher Scientific), after vector linearization, from cDNA sub-cloned into plasmids (pTLNx) incorporating Xenopus laevis β-globin 5’ and 3’ UTRs flanking the coding region to enhance translation and cRNA stability. […]
as §1, with “mV. We analyzed data using Clampfit (Molecular Devices) and Graphpad Prism software (GraphPad, San Diego, CA, USA), stating values as mean ± SEM.” for “mV.”

T2 sequence (Q09470 whole entry, stated change not applied): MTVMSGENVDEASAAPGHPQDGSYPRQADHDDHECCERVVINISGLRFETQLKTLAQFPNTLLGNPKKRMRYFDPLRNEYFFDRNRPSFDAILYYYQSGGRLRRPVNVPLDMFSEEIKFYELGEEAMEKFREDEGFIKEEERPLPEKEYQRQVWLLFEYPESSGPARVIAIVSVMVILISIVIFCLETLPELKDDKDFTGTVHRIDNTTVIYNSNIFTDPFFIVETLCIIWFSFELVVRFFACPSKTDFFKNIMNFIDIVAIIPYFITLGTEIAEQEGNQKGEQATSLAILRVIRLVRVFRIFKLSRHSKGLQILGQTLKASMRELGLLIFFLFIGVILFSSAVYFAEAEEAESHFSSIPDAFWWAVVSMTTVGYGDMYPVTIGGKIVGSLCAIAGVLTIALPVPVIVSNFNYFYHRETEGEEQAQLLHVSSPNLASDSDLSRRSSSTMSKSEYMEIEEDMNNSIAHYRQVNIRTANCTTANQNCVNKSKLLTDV
T2 sequence (Q09470 whole entry V408A): as the sequence (Q09470 whole entry, stated change not applied) above, with V408A counted along it
T1 sequence (P16389 whole entry): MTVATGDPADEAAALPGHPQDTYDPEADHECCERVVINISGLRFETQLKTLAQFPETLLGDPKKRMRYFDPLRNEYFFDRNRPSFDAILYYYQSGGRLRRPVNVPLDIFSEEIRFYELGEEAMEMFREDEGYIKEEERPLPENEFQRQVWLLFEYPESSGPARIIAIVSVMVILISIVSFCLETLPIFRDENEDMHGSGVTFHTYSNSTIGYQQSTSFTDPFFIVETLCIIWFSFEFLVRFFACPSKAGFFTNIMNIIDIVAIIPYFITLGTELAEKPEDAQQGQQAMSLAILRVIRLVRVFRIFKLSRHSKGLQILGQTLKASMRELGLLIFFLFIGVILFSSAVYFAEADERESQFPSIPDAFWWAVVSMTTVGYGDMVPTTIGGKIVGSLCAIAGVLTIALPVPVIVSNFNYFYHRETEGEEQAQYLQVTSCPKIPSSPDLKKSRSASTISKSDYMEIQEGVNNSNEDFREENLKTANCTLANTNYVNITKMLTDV

EC50 ([1]; dose response, Fig. 4, read-out: EC50 for ΔV0.5activation) | Molecule | effect on Kv1.2 ([1]; compound dose response, Fig. 4a) | effect on channel activity [2] | EM ([2]; in presence of 1 µM compound)
 | O=C(O)c1cc(O)c(O)c(O)c1 [gallic acid] | relatively insensitive | negligible | -46.60 ± 0.60 mV
0.253 ± 0.01 µM | tannic acid |  | minimal | 
